Experiment [1] deals with T1, PD-L1 protein (Homo sapiens, UniProt Q9NZQ7).
T1 construct: PD-L1 gene (amino acids 18–239); made in house; host or cells: E. coli BL21
The experiment can be described thus: 1H NMR binding analysis, PD-L1 protein titrated with ligand. Conditions: for Protein precipitation during NMR titration: 1H NMR titration, compound 6 at protein–ligand ratio 1:10; for Binding to PD-L1 by 1H NMR titration: PBS pH 7.4, 300 K, protein–ligand ratios up to 1:10. How it is done:
Apart from the HTRF assay, we performed the NMR [33, 34] binding analysis by recording the ^1H spectrum of the PD-L1 protein titrated with compound 4 (Figure 1).
The E. coli strain BL21 was transformed with a pET-21b plasmid carrying the PD-L1 gene (amino acids 18–239). The bacteria were cultured in LB at 37 °C until OD600nm of 0, 6 when the recombinant protein production was induced with 1 mM IPTG. The protein production continued overnight. The inclusion bodies were collected by centrifugation, washed twice with 50 mM Tris HCl, pH 8.0, containing 200 mM NaCl, 10 mM EDTA, 10 mM 2-mercaptoethanol, and 0.5% Triton X-100, followed by a single wash with the same buffer but with no Triton X-100. The washed inclusion bodies were resuspended overnight in 50 mM Tris HCl, pH 8.0, 6 M GuHCl, 200 mM NaCl, and 10 mM 2-mercaptoethanol and clarified with centrifugation. Refolding of PD-L1 was performed by dropwise dilution into 0.1 M Tris HCl, pH 8.0, containing 1 M L-arginine hydrochloride, 0.25 mM oxidized glutathione, and 0.25 mM reduced glutathione. The refolded protein was dialyzed three times against 10 mM Tris HCl, pH 8.0, containing 20 mM NaCl and purified by size exclusion chromatography using Superdex 75 and a dialysis buffer. The quality of the refolded protein was evaluated by SDS-PAGE and NMR.
NMR spectra were recorded in PBS, pH 7.4, containing 10% (v/v) of D2O added to the samples to provide the lock signal. Water suppression was carried out using the WATERGATE sequence. All the spectra were recorded at 300 K using a Bruker Avance 600 MHz spectrometer with the Cryo-Platform. The NMR spectrum was recorded at three different ligand/protein ratios from 0 to 10. The samples were prepared by adding small amounts of a 50 mM ligand stock solution in DMSO to the protein solution (0.20 mL) of the PD-L1 fragment at a concentration of 0.14 mM. The acquisition parameters for each spectrum were as follows: size of FID32768, number of scans: 32. The spectra were visualized using TopSpin 4.0.2. (Bruker, Billerica, MA, USA)

In experiment [2] the test system is PD-1/PD-L1 blockade, Jurkat effector cells / CHO/TCRAct/PD-L1 cells. The experiment can be described thus: Immune checkpoint blockade (ICB) assay (Promega): Jurkat ECs co-cultured with CHO/TCRAct/PD-L1 cells, NFAT luciferase readout. The class given is cell-based, human. Particulars: for Activation of Jurkat ECs compared with BMS-1166: 5 µM, p < 0.001 vs BMS-1166; for Activation of Jurkat ECs in the ICB assay: 6 h co-culture, fold induction vs control; for Promega Assay (active / not active): cell-based PD-1/PD-L1 blockade bioassay. The procedure: In order to explore the bioactivity of the synthesized compounds, a well-recognized immune checkpoint blockade (ICB) assay was performed. In the assay, artificial T cells, the Jurkat effector cells (Jurkat ECs), i.e., the Jurkat T cells overexpressing PD-1 and luciferase-coding gene under the control of the TCR-inducible NFAT response element, are contacted with artificial antigen-presenting CHO/TCRAct/PD-L1 cells, as illustrated in [31]. The latter is the CHO cells equipped with the TCR activator molecule, which delivers activation of Jurkat ECs, and also the PD-L1 protein, which provides a negative signal towards the activation of Jurkat ECs. Upon the blockade of the PD-1/PD-L1 interaction, activation of Jurkat ECs is increased, as we have shown before for several classes of therapeutic antibodies and small molecules.
The human PD-L1-expressing CHO-K1 cells overexpressing TCR activator (CHO/TCRAct/PD-L1) cells and Jurkat ECs T cells overexpressing PD-1 and carrying a luciferase reporter gene under the control of the Nuclear Factor of Activated T cells Response Element (NFAT-RE) were obtained from Promega and cultured in an RPMI-1640 medium (Biowest, Nuaillé, France) supplemented with 10% fetal bovine serum (FBS, Biowest, Nuaillé, France) and […] L-glutamine (Biowest, Nuaillé, France). G418 (250 µg/mL, InvivoGen, San Diego, CA, USA) and Hygromycin B Gold (50 µg/mL, InvivoGen, San Diego, CA, USA) were also added to the culture medium as selection antibiotics. CAKI 2, LNCap, PC-3, and MDA-MB-231 cells were purchased from the European Collection of Authenticated Cell Cultures (ECACC) and cultured according to the provided protocol.
For the analysis of biological activity of the analyzed compounds, an immune checkpoint blockade (ICB) assay was performed. For this, the culture of Jurkat effector cells (Jurkat-ECs) and […] was carried out. The assay was performed according to the protocol described in our previous works. All the experiments were performed three times as independent experiments.
Figure 2 Bioactivity of the indicated compounds. (A,B) The activity was monitored with a cell-based immune checkpoint blockade (ICB) assay. Jurkat ECs were contacted with pre-seeded CHO/TCRAct/PD-L1 cells in the presence of the indicated concentrations of the compounds (A) or durvalumab (B) as a positive control. The cells were co-cultured for 6 h and the luminescence signal was measured following the addition of the Bio-Glo substrate. The graphs show fold induction calculated versus either DMSO-treated (for small molecules) or untreated (for durvalumab) control (ctrl) cells. The results are mean ± SD from three independent experiments. […] (C) Analysis of the expression of PD-L1 in four human cancer cell lines compared to PD-L1-overexpressing CHO/TCRAct/PD-L1 cells. (D) Analysis of the expression of PD-L1 in MDA-MB-231 cells treated with either 4 or 5 compounds for 6 or 24 h.

Entries after “also recorded” stand apart in the source; their conditions may differ.

T1 sequence (Q9NZQ7 18-239): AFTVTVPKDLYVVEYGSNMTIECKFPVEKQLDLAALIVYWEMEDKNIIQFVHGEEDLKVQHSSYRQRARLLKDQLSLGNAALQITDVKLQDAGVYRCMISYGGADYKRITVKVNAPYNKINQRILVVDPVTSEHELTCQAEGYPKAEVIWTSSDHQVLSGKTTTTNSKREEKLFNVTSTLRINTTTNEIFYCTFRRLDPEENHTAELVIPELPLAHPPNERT

As to `COc1nc(OCc2cccc(-c3ccccc3)c2C)ccc1CNCC1CCN(CC(=O)Nc2cccc3c2C(=O)N(C2CCC(=O)NC2=O)C3=O)CC1` (stereo not shown) [compound 4, N-(2-(2,6-dioxopiperidin-3-yl)-1,3-dioxoisoindolin-4-yl)-2-(4-((((2-methoxy-6-((2-methyl-[1,1′-biphenyl]-3-yl)methoxy)pyridin-3-yl)methyl)amino)methyl)piperidin-1-yl)acetamide], in experiment [1], the “Protein precipitation during NMR titration” value was “not observed” and the “Binding to PD-L1 by 1H NMR titration” value is “bind to the PD-L1 protein”. In addition, in experiment [2], the “Activation of Jurkat ECs compared with BMS-1166” value is recorded as “significantly higher levels of the activation of Jurkat ECs”, the “Activation of Jurkat ECs in the ICB assay” value is “able to increase the activation of Jurkat ECs; also recorded: significantly restore the repressed immunity” and the “Promega Assay (active / not active)” value is “Active”.

As to `COc1nc(OCc2cccc(-c3ccccc3)c2C)ccc1CNCCCNc1cccc2c1C(=O)N(C1CCC(=O)NC1=O)C2=O` (stereo not shown) [compound 5, 2-(2,6-dioxopiperidin-3-yl)-4-((3-(((2-methoxy-6-((2-methyl-[1,1′-biphenyl]-3-yl)methoxy)pyridin-3-yl)methyl)amino)propyl)amino)isoindoline-1,3-dione], in experiment [1], the “Protein precipitation during NMR titration” value is “not observed” and the “Binding to PD-L1 by 1H NMR titration” value is “bind to the PD-L1 protein”. In experiment [2], the “Activation of Jurkat ECs compared with BMS-1166” value is reported as “significantly higher levels of the activation of Jurkat ECs”, the “Activation of Jurkat ECs in the ICB assay” value is “able to increase the activation of Jurkat ECs; also recorded: significantly restore the repressed immunity” and the “Promega Assay (active / not active)” value is reported as “Active”.

The values above are taken from publication PMC9181982, “Biphenyl Ether Analogs Containing Pomalidomide as Small-Molecule Inhibitors of the Programmed Cell Death-1/Programmed Cell Death-Ligand 1 Interaction” (Molecules, 2022).
